Earlier results as cited in patent US11517526B2, “Stabilised hypochlorous solutions and their medical cosmetic uses” (Clinical Health Technologies Ltd, priority 2019, dated 2022).

What was measured:
[1] = natural state, unless stabilised

- half-life [1]: 48 h
SMILES: OCl [hypochlorous acid (HOCl), hypochlorous acid]
- effectiveness as an antimicrobial relative to hypochlorite (OCl−) (microbes): 80-100 times
